The nature of series [1]: Solubility in SIF buffer system. The format is physicochemical.
Series [2] in a line: Solubility in SIBLM buffer system. It counts as physicochemical.
A short description of series [3]: Permeability in Caco-2 assay at 10E-6. Particulars: human, read-out: Activity. The format is ADME.
The nature of series [4]: Solubility in SGF buffer system. It counts as physicochemical.
The test system of a further series is HUVEC. The series can be described thus: Inhibitory activity against VLA-4 mediated adhesion to human vein endothelial cells. It counts as functional, cell-based.
The nature of series [5]: Stability in rat plasma was determined. The format is ADME.
Series [6] in a line: Log Doctanol value by HPLC peak area analysis of aqueous and octanol phases at pH 6.5. The format is physicochemical. Particulars: octanol/aqueous phase, read-out: LogD6.5.
Series [7] can be described thus: Log Doctanol value by HPLC peak area analysis of aqueous and octanol phases at pH 4.5-6.5. The format is physicochemical.
A short description of series [8]: Solubility in SIF buffer system; ND= not detectable. It counts as physicochemical. The settings on record: simulated gi fluid.
The nature of series [9]: Log Doctanol value by HPLC peak area analysis of aqueous and octanol phases at pH 4.5. The settings on record: octanol/aqueous phase. It counts as physicochemical.
A short description of series [10]: Solubility in SGF buffer system; ND=not detectable. The settings on record: simulated gi fluid. The format is physicochemical.
The mark [11] stands for this setting: octanol/aqueous phase, read-out: logD.

Values after ≈ are worked out from the molar mass of the structure shown.

In the case of `CN(C)C(=O)Oc1ccc(C[C@H](NC(=O)[C@H]2N(S(=O)(=O)c3ccn(C)n3)CSC2(C)C)C(=O)O)cc1`, the solubility in series [1] was over 20000 µg/mL; in series [2] it was 20000 µg/mL (≈ 37100 µM); in series [4], 3300 µg/mL (≈ 6120 µM). For the same compound, in [3], the Papp was over 0.07 ×10⁻⁶ cm/s. The compound also gave an IC50 in the series with HUVEC of 6 nM.

The compound `COCCOCCOC(=O)[C@H](Cc1ccc(OC(=O)N(C)C)cc1)NC(=O)[C@H]1N(S(=O)(=O)c2ccn(C)n2)CSC1(C)C` showed a half-life in [5] of 13.1 min. Moreover, the values for the logD in [6] and in [7] (setting [11]) were 1.42 and 1.41, respectively. The solubility in [1] amounted to 2400 µg/mL (≈ 3740 µM); in [2], 4650 µg/mL (≈ 7250 µM); in series [4] it was 2830 µg/mL (≈ 4410 µM). Besides, the Papp in [3] came out at 2.03 ×10⁻⁶ cm/s.

In the case of `CN(C)C(=O)Oc1ccc(C[C@H](NC(=O)[C@H]2N(S(=O)(=O)c3ccn(C)n3)CSC2(C)C)C(=O)OCOC(=O)C(C)(C)C)cc1`, the half-life in series [5] was 2.82 min. For the same compound, the logD in series [6] amounted to 3.17; in [9], 3.1. Moreover, the figures for the solubility entry in series [8], in [2] and in [4] were “Not detectable”, 119 µg/mL (≈ 182 µM) and 13 µg/mL (≈ 19.9 µM), respectively. In addition, the Papp in series [3] amounted to 2.49 ×10⁻⁶ cm/s.

Turning to `CCOC(=O)[C@H](Cc1ccc(OC(=O)N(C)C)cc1)NC(=O)[C@H]1N(S(=O)(=O)c2ccn(C)n2)CSC1(C)C`, in series [5], the half-life was found to be 8.08 min. In addition, the figures for the logD in series [6] and in [9] were 2 and 2.27, respectively. In addition, the solubility is 341 µg/mL (≈ 601 µM) in series [1], 1180 µg/mL (≈ 2080 µM) in [2] and 629 µg/mL (≈ 1110 µM) in [4]. For the same compound, in series [3], the Papp came out at 4.24 ×10⁻⁶ cm/s.

As for `CC(C)OC(=O)[C@H](Cc1ccc(OC(=O)N(C)C)cc1)NC(=O)[C@H]1N(S(=O)(=O)c2ccn(C)n2)CSC1(C)C`, in [5], the half-life turned out to be 10.9 min. In addition, the results for the logD in series [6] and in series [9] were 2.47 and 2.45, respectively. Besides, the results for the solubility in [1], in series [2] and in series [4] were 45.5 µg/mL (≈ 78.2 µM), 158 µg/mL (≈ 272 µM) and 94.9 µg/mL (≈ 163 µM), respectively. Also, the Papp in series [3] worked out at 6.83 ×10⁻⁶ cm/s.

As for `CN(C)C(=O)Oc1ccc(C[C@H](NC(=O)[C@H]2N(S(=O)(=O)c3ccn(C)n3)CSC2(C)C)C(=O)OCC(C)(C)C)cc1`, the half-life in series [5] is 53.4 min. The solubility entry was “Not detectable” in [8], 6.97 µg/mL (≈ 11.4 µM) in series [2] and 0.334 µg/mL (≈ 0.548 µM) in series [4]. In series [3], the Papp was 4.52 ×10⁻⁶ cm/s. Further, the figures for the logD in [7] (setting [11]) and in series [7] (octanol/water) were 3.43 and 3.42, respectively.

`CN(C)C(=O)Oc1ccc(C[C@H](NC(=O)[C@H]2N(S(=O)(=O)c3ccn(C)n3)CSC2(C)C)C(=O)OCCOc2ccccc2)cc1` returned a half-life in series [5] of 1.6 min. For the same compound, the logD was determined as 3.34 in [6] and 3.21 in series [9]. In addition, the values for the solubility result in [10], in [1] and in series [2] were “Not detectable”, 0.506 µg/mL (≈ 0.767 µM) and 24 µg/mL (≈ 36.4 µM), respectively. In addition, the Papp in [3] amounted to 7.58 ×10⁻⁶ cm/s.

By solubility is commonly meant how much of the substance goes into solution per volume. A higher solubility goes with much dissolved substance. As usually defined, the IC50 is the concentration that inhibits the measured activity by half. One may read the half-life as the time in which the quantity being followed falls by half. A high value points to slow decline.

The record behind these values is ChEMBL document CHEMBL1148230, “Synthesis, characterization and evaluation of pro-drugs of VLA-4 antagonists” (Bioorg Med Chem Lett, 2004).
